How the values were obtained:
mouse EP1 = biological target: T1, mouse EP1 (Mus musculus, UniProt P35375); test: Binding assay using expression cell of prostanoid receptor subtype (EP1; competition of specific 3H-PGE2 binding to CHO cell membrane fraction); details: Table 1, 3H-PGE2 2.5 nM, 1 hour, room temperature, pH6.0, read-out: dissociation constant to receptor subtype, Ki (EP1), present invention compounds
T1 construct: expressed in transfected cells; host or cells: CHO
T1 sequence (P35375 1-405): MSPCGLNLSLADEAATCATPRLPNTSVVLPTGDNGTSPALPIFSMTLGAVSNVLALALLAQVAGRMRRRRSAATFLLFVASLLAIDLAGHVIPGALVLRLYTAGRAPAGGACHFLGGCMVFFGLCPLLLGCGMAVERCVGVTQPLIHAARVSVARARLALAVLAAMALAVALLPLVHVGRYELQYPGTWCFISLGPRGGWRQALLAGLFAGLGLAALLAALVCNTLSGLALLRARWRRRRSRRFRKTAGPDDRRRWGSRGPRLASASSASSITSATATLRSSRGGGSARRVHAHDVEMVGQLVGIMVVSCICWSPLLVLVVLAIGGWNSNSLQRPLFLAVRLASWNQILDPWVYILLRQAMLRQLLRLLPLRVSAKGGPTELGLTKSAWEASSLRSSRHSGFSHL
Experimental: (§1) (i) Binding Assay Using Expression Cell of Prostanoid Receptor Subtype
(§2) The standard assay mixture contained membrane fraction (0.5 mg/ml), ^3 H-PGE2 in a final volume of 200 microliter was incubated for 1 hour at room temperature. The reaction was terminated by addition of 3 ml of ice-cold buffer. The mixture was rapidly filtered through a glass filter (GF/B). The radioactivity associated with the filter was measured by liquid scintillation counting.
(§3) Non-specific binding was calculated as the binding in the presence of an excess (2.5 microM) of unlabeled PGE2. […] The following buffer was used in all reaction. Buffer:potassium phosphate (pH6.0, 10 mM), EDTA (1 mM), MgCl2 (10 mM), NaCl (0.1M).
(§4) The dissociation constant Ki (microM) of each compound was calculated by the following equation.

mouse EP3 = biological target: T2, mouse EP3 (Mus musculus, UniProt P30557); test: Binding assay using expression cell of prostanoid receptor subtype (EP3; competition of specific 3H-PGE2 binding to CHO cell membrane fraction); details: Table 1, 3H-PGE2 2.5 nM, 1 hour, room temperature, pH6.0, read-out: dissociation constant to receptor subtype, Ki (EP3), present invention compounds
T2 construct: expressed in transfected cells; host or cells: CHO
T2 sequence (P30557 1-365): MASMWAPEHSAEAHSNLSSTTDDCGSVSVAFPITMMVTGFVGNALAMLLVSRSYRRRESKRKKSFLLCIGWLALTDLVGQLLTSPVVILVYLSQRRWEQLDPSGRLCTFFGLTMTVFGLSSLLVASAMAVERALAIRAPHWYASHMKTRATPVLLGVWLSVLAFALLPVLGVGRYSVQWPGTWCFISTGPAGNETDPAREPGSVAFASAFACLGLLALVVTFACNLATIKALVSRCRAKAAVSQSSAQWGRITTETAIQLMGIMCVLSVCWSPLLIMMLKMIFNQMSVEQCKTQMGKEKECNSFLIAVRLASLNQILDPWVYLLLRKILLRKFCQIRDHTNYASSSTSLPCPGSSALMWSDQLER
Experimental: as §1, §2, §3, §4

Row | SMILES | Ki (mouse EP1) [nM] | Ki (mouse EP3) [nM]
1 | Cc1cc(Cl)cc(Cl)c1S(=O)(=O)NC[C@H]1C2CCC(CC2)[C@H]1/C=C\CCCC(=O)O [Example 2(k), 6-[(2S, 3S)-3-(2,4-dichloro-6-methylphenylsulfonylaminomethyl)bicyclo[2.2. 2]octan-2-yl]-5Z-hexenoic acid] | 2.4 | 1400
2 | Cc1cc(Br)ccc1S(=O)(=O)NC[C@H]1C2CCC(CC2)[C@H]1/C=C\CCCC(=O)O [Example 2(d), 6-[(2S, 3S)-3-(4-bromo-2-methylphenylsulfonylaminomethyl)bicyclo[2.2. 2]octan-2-yl]-5Z-hexenoic acid] | 1.4 | 85
3 | Cc1cc(Cl)ccc1S(=O)(=O)NC[C@H]1C2CCC(CC2)[C@H]1/C=C/CCCC(=O)O [Example 2(n), 6-[(2S, 3S)-3-(4-chloro-2-methylphenylsulfonylaminomethyl)bicyclo[2.2. 2]-octan-2-yl]-5E-hexenoic acid] | 5.1 | 1900
4 | O=C(O)CCC/C=C\[C@@H]1C2CCC(CC2)[C@@H]1CNS(=O)(=O)c1c(Cl)cc(Cl)cc1Cl [Example 2(g), 6-[(2S, 3S)-3-(2,4,6-trichlorophenylsulfonylaminomethyl)bicyclo[2.2. 2]octan-2-yl]-5Z-hexenoic acid] | 3.4 | 950
5 | Cc1cc(Cl)ccc1S(=O)(=O)NC[C@H]1C2CCC(CC2)[C@@H]1/C=C\CCCC(=O)O [Example 2(c), 6-[(2S, 3S)-3-(4-chloro-2-methylphenylsulfonylaminomethyl)bicyclo[2.2. 2]octan-2-yl]-5Z-hexenoic acid] | 1.8 | 200
6 | O=C(O)CCC/C=C\[C@@H]1C2CCC(CC2)[C@@H]1CNS(=O)(=O)c1ccc(Cl)cc1Cl [Example 2, 6-[(2S, 3S)-3-(2,4-dichlorophenylsulfonylaminomethyl)bicyclo[2.2. 2]octan-2-yl]-5Z-hexenoic acid] | 0.5 | 120
7 | O=C(O)CCC/C=C\[C@H]1CCCC[C@@H]1CNS(=O)(=O)c1ccc(Cl)cc1Cl [Example 3(a), 6-[(1R, 2S)-2-(2,4-dichlorophenylsulfonylaminomethyl)cyclohexyl]-5Z-hexenoic acid] | 3.1 | 18
8 | O=C(O)CCC/C=C\[C@H]1CCCC[C@@H]1CNS(=O)(=O)c1c(Cl)cc(Cl)cc1Cl [Example 3(e), 6-[(1R, 2S)-2-(2,4,6-trichlorophenylsulfonylaminomethyl)cyclohexyl]-5Z-hexenoic acid] | 8.4 | 110

Next, values leading:

Row | Ki (mouse EP1) [nM] | Ki (mouse EP3) [nM] | SMILES
9 | 3.9 | 1400 | O=C(O)CCC/C=C\[C@@H]1[C@@H](CNS(=O)(=O)c2ccc(Cl)cc2F)[C@H]2C=C[C@@H]1CC2 [Example 7(d), 6-[(1R, 4S, 5S, 6S)-6-(4-chloro-2-fluorophenylsulfonylaminomethyl)bicyclo[2.2. 2]oct-2-en-5-yl]-5Z-hexenoic acid]
10 | 3.9 | 370 | O=C(O)CCC/C=C\[C@@H]1[C@@H](CNS(=O)(=O)c2ccc(Cl)cc2Cl)[C@@H]2C=C[C@H]1CC2 [Example 6(a), 6-[(1S, 4R, 5S, 6S)-6-(2,4-dichlorophenylsulfonylaminomethyl)bicyclo[2.2. 2]-oct-2-en-5-yl]-5Z-hexenoic acid]
11 | 23 | 1200 | O=C(O)CCC/C=C\[C@@H]1[C@@H]2CC[C@@H](C2)[C@@H]1CNS(=O)(=O)c1ccc(Cl)cc1F [Example 5(d), 6-[(1R, 2S, 3S, 4S)-3-(4-chloro-2-fluorophenylsulfonylaminomethyl)bicyclo[2.2. 1]heptan-2-yl]-5Z-hexenoic acid]
12 | 39 | 180 | O=C(O)CCC/C=C\[C@H]1CC=CC[C@@H]1CNS(=O)(=O)c1ccc(Cl)cc1F [Example 4(c), 6-[(4R, 5S)-5-(4-chloro-2-fluorophenylsulfonylaminomethyl)cyclohexen-4-yl]-5Z-hexenoic acid]
13 | 4.2 | 1100 | Cc1cc(Cl)cc(C)c1S(=O)(=O)NC[C@@H]1[C@@H](/C=C\CCCC(=O)O)[C@H]2C=C[C@@H]1CC2 [Example 6(e), 6-[(1S, 4R, 5S, 6S)-6-(4-chloro-2,6-dimethylphenylsulfonylaminomethyl)bicyclo[2.2. 2]oct-2-en-5-yl]-5Z-hexenoic acid]
14 | 1.1 | 41 | Cc1cc(Cl)ccc1S(=O)(=O)NC[C@H]1CCCC[C@@H]1/C=C\CCCC(=O)O [Example 3(f), 6-[(1R, 2S)-2-(4-chloro-2-methylphenylsulfonylaminomethyl)cyclohexyl]-5Z-hexenoic acid]
15 | 7.2 | 200 | Cc1cc(Cl)ccc1S(=O)(=O)NC[C@H]1[C@H]2CC[C@H](C2)[C@H]1/C=C\CCCC(=O)O [Example 5(e), 6-[(1R, 2S, 3S, 4S)-3-(4-chloro-2-methylphenylsulfonylaminomethyl)bicyclo[2.2. 1]heptan-2-yl]-5Z-hexenoic acid]
16 | 17 | 52 | Cc1cc(Cl)ccc1S(=O)(=O)NC[C@H]1CC=CC[C@@H]1/C=C\CCCC(=O)O [Example 4(b), 6-[(4R, 5S)-5-(4-chloro-2-methylphenylsulfonylaminomethyl)cyclohexen-4-yl]-5Z-hexenoic acid]
17 | 7.2 | 1500 | O=C(O)CCC/C=C\[C@@H]1[C@@H](CNS(=O)(=O)c2c(Cl)cc(Cl)cc2Cl)[C@H]2C=C[C@@H]1CC2 [Example 7(f), 6-[(1R, 4S, 5S, 6S)-6-(2,4,6-trichlorophenylsulfonylaminomethyl)bicyclo[2.2. 2]oct-2-en-5-yl]-5Z-hexenoic acid]
18 | 12 | 280 | O=C(O)CCC/C=C\[C@@H]1[C@@H]2CC[C@@H](C2)[C@@H]1CNS(=O)(=O)c1ccc(Cl)cc1Cl [Example 5(a), 6-[(1R, 2S, 3S, 4S)-3-(2,4-dichlorophenylsulfonylaminomethyl)bicyclo[2.2. 1]-heptan-2-yl]-5Z-hexenoic acid]
19 | 5.7 | 12 | Cc1cc(Br)ccc1S(=O)(=O)NC[C@H]1CC=CC[C@@H]1/C=C\CCCC(=O)O [Example 4(f), 6-[(4R, 5S)-5-(4-bromo-2-methylphenylsulfonylaminomethyl)cyclohexen-4-yl]-5Z-hexenoic acid]

Source: patent US6235777A, “Benzenesulfonamide compounds” (Ono Pharmaceutical Co., Ltd., priority 1997, dated 2001)
